Results as given in PMC11597386, “Pharmacokinetics and Quantitative Structure–Pharmacokinetics Relationship Study of Xanthine Derivatives with Antidepressant, Anti-Inflammatory, and Analgesic Activity in Rats” (Pharmaceutics, 2024).
Like-named read-outs stand apart in the source and are kept apart here.

Experiments:
[1] = Plasma protein binding / unbound fraction by ultrafiltration of plasma collected 15 min after i.v. administration; type: in vitro ADME; conditions: male, Wistar, rat, intravenous
Description: The free concentrations of studied compounds in plasma were determined and unbound fraction (fu) was calculated in all available plasma samples obtained 15 min after the intravenous administration. At this time point, 500–600 µL of blood was collected and plasma samples obtained were divided into two portions: 150–200 µL for measurement of free compound concentrations and 100 µL for measurement of the total drug concentrations. Plasma proteins were separated by an ultrafiltration method using Centrifree® devices with Ultracel PL regenerated cellulose membrane, 30,000 NMWL (Merck, Germany). For direct measurement of the free concentrations of compounds, each plasma sample was transferred to a sample reservoir of the disposable filter unit and centrifuged (1000× g) for 20 min at 25 °C. An aliquot of the ultrafiltrate was directly subjected to analysis. Free and total compound concentrations were measured by a high-performance liquid chromatography method with diode-array detection (HPLC-DAD) or liquid chromatography with tandem mass spectrometry (LC-MS/MS).
For the purpose of the quantitative analysis of free and total plasma concentrations of studied compounds, different analytical methods were developed. […] The mixture consisting of 100 μL of rat plasma or ultrafiltrate, 10 μL of theobromine (25 μg/mL in methanol) used as IS, 20 μL of 0.1 M HCl, and 5 mL of dichloromethane was agitated on a shaker (VXR Vibrax, IKA, Staufen, Germany) and subsequently centrifuged for 20 min at 3000 rpm (Universal 32, Hettich, Germany). A clear supernatant (4 mL) was transferred into a glass conical tube and evaporated to dryness under a stream of nitrogen in a water bath at 37 °C. The residue was then reconstituted in 100 μL of methanol, vortexed for 30 s, and the solution was transferred into the automatic sampler vials. Finally, 10–50 μL aliquot was injected into the HPLC/DAD system (LaChrome Elite, Merck-Hitachi, Germany). Chromatographic separation was performed on the LiChrospher 100 RP-18 (250 × 4 mm i.d., 5 µm particle size) analytical column coupled with a LiChroCART® guard column (4.0 × 4.0 mm, 5 μm) from Merck (Darmstadt, Germany). The mobile phase consisted of a mixture of methanol and deionized water (20:80, v/v) and was pumped through the system at a flow rate of 1.0 mL/min. The peaks were detected by a DAD detector at the wavelength of 271 nm. […] The analytical run lasted 20 min.
Plasma or ultrafiltrate samples containing PTX or (R)-LSF were placed in a glass tube and spiked with 10 µL of the IS solution (100 µg/mL temazepam in methanol). Samples were then acidified with 20 µL of 0.1 M hydrochloric acid, and 3 mL of dichloromethane was added to each sample. Tubes were shaken for 20 min and subsequently centrifuged (2000× g, 20 min). Then, 2.5 mL of dichloromethane was transferred to a clean glass conical tube and evaporated under a gentle stream of nitrogen in a water bath at 37 °C. The dried residue was dissolved in 100 µL of the mobile phase, and 50 µL of this solution was injected into the HPLC column. Analysis was performed on a 250 × 4.6 mm Chiralpak AD column (Daicel Corp., Tokyo, Japan) with 10 μm particle size, protected with a 20 × 4.6 mm LC-Si guard-column (Supelco Inc., Bellefonte, PA, USA). Mobile phase consisted of hexane: 2-propanol, 84:16 (v/v), and 0.01% diethylamine and was pumped at a flow rate of 1.4 mL/min. […] HPLC system (Thermo Separation Product, San Jose, CA, USA) consisted of a UV/VIS spectrophotometric detector (Spectra 100) with absorbance set at 275 nm, P100 pump, and Rheodyne 7125 manual injector (Alltech Associates, Deerfield, IL, USA) with a 50 µL sample loop. Chromatograms were recorded and integrated with an SP 4400 ChromJet integrator (San Jose, CA, USA).

[2] = Pharmacokinetics after single intravenous administration to cannulated rats, noncompartmental analysis; type: in vivo, rat; conditions: for clearance / Vd / half-life: male, Wistar, rat, plasma, iv; for clearance: read-out: CL, total body clearance; for Vd: read-out: Vz, volume of distribution based on the terminal phase; for half-life: read-out: t0.5λz, terminal half-life
Description: Male Wistar rats, 15–17 weeks of age and weighing between 250 and 350 g, purchased from the Animal Facility of the Jagiellonian University Medical College, Krakow, Poland, were used in all experiments. They were kept under conditions of constant temperature (21–25 °C) and relative humidity of approximately 40–65% with a standard light/dark cycle. Animals were housed in stainless steel cages with suspended wire mesh floors (maximum of 5 rats per cage) with free access to distilled water and the commercial rodent chaw. All study protocols were approved by the First Local Ethical Committee on Animal Testing of the Jagiellonian University (licenses no. Zi/604/2011 and 13/2014).
Three days prior to the experiment, the rat’s jugular vein was cannulated (SAI Infusion Technologies, Lake Villa, IL, USA), allowing for multiple blood samples from a single animal. […] The doses were selected based on the results of our previous studies on rats and mice. Four rats per compound were used. Multiple blood samples were taken over a period of at least 120 min into heparinized tubes; plasma was separated by centrifugation (Universal 32, Hettich, Germany) at 1400× g for 20 min and stored at −80 °C until analysis.
For the purpose of the quantitative analysis of free and total plasma concentrations of studied compounds, different analytical methods were developed. Theo was extracted from the biological samples by liquid–liquid extraction using dichloromethane. The mixture consisting of 100 μL of rat plasma or ultrafiltrate, 10 μL of theobromine (25 μg/mL in methanol) used as IS, 20 μL of 0.1 M HCl, and 5 mL of dichloromethane was agitated on a shaker (VXR Vibrax, IKA, Staufen, Germany) and subsequently centrifuged for 20 min at 3000 rpm (Universal 32, Hettich, Germany). A clear supernatant (4 mL) was transferred into a glass conical tube and evaporated to dryness under a stream of nitrogen in a water bath at 37 °C. The residue was then reconstituted in 100 μL of methanol, vortexed for 30 s, and the solution was transferred into the automatic sampler vials. Finally, 10–50 μL aliquot was injected into the HPLC/DAD system (LaChrome Elite, Merck-Hitachi, Germany). Chromatographic separation was performed on the LiChrospher 100 RP-18 (250 × 4 mm i.d., 5 µm particle size) analytical column coupled with a LiChroCART® guard column (4.0 × 4.0 mm, 5 μm) from Merck (Darmstadt, Germany). The mobile phase consisted of a mixture of methanol and deionized water (20:80, v/v) and was pumped through the system at a flow rate of 1.0 mL/min. The peaks were detected by a DAD detector at the wavelength of 271 nm. […] The analytical run lasted 20 min.
Plasma or ultrafiltrate samples containing PTX or (R)-LSF were placed in a glass tube and spiked with 10 µL of the IS solution (100 µg/mL temazepam in methanol). Samples were then acidified with 20 µL of 0.1 M hydrochloric acid, and 3 mL of dichloromethane was added to each sample. Tubes were shaken for 20 min and subsequently centrifuged (2000× g, 20 min). Then, 2.5 mL of dichloromethane was transferred to a clean glass conical tube and evaporated under a gentle stream of nitrogen in a water bath at 37 °C. The dried residue was dissolved in 100 µL of the mobile phase, and 50 µL of this solution was injected into the HPLC column. Analysis was performed on a 250 × 4.6 mm Chiralpak AD column (Daicel Corp., Tokyo, Japan) with 10 μm particle size, protected with a 20 × 4.6 mm LC-Si guard-column (Supelco Inc., Bellefonte, PA, USA). Mobile phase consisted of hexane: 2-propanol, 84:16 (v/v), and 0.01% diethylamine and was pumped at a flow rate of 1.4 mL/min. Calibration curves were linear in a range of 0.1–50 mg/L. The retention times of IS, PTX, and (R)-LSF were 7, 16, and 20 min, respectively. […]

plasma proteins = tested on: plasma proteins; parameters: method as in earlier work; conditions: cited from earlier work
[3] = rat plasma 15 min after i.v. administration, ultrafiltration, geometric mean, n = 4, read-out: fb, fraction bound to plasma proteins (converted)
[4] = rat plasma 15 min after i.v. administration, ultrafiltration, geometric mean, n = 4, read-out: fu, fraction unbound in plasma
[5] = male Wistar rats, single i.v. dose (50 mg/kg Theo; 40 mg/kg PTX, LSF; 5 mg/kg GR-1 to GR-5; 2 mg/kg GR-6 to GR-8), geometric mean, n = 4
[6] = rat plasma proteins, read-out: percent of plasma protein binding (converted)

Structure (SMILES) | fraction unbound at 15 min [1, 3] | fraction unbound at 15 min [1, 4] | clearance [2] | Vd [2] | half-life [2] | Vss, volume of distribution at steady-state [2, 5] | fraction unbound at 15 min [1, 6] | Vz, volume of distribution based on the terminal phase [2, 5] | percent of plasma protein binding (plasma proteins)
Cn1c(=O)c2c(ncn2CCCCCN2CCN(c3cccc(Cl)c3)CC2)n(C)c1=O [GR-4] | 0.06 | 0.06 | 26.4 mL/min/kg | 1.9 L/kg | 50 min | – | – | – | –
Cn1c(=O)c2c(ncn2CC(O)CO)n(C)c1=O (centres unmarked) [diprophyllinum] | – | – | – | – | – | – | – | – | 84–90%
Cn1c(=O)c2[nH]cnc2n(C)c1=O [Theo, theophylline, reference compound] | – | – | 2.14 mL/min/kg | 0.73 L/kg | 236 min | 0.72 L/kg | – | – | –
Cn1c(=O)c2c(ncn2CCCCCN2CCN(c3ccccc3)CC2)n(C)c1=O [GR-2] | 0.29 | 0.29 | 29.6 mL/min/kg | 1.52 L/kg | 35.6 min | – | 0.28 to 0.29 | – | –
COC(=O)Cn1c(=O)[nH]c2c1c(=O)n(C)c(=O)n2C [GR-8] | 0.14 | 0.14 | 68.1 mL/min/kg | 0.66 L/kg | 6.75 min | 0.33 L/kg | – | – | –
Cn1c(=O)c2c(ncn2CCCCN2CCN(c3cccc(Cl)c3)CC2)n(C)c1=O [GR-1] | 0.08 | 0.08 | 33.1 mL/min/kg | 2.17 L/kg | 45.4 min | – | – | – | –
COc1ccccc1N1CCN(CCCCCn2cnc3c2c(=O)n(C)c(=O)n3C)CC1 [GR-3] | 0.28 | 0.28 | 23.6 mL/min/kg | 1.7 L/kg | 49.8 min | – | 0.28 to 0.29 | – | –
CC(=O)CCCCn1c(=O)c2c(ncn2C)n(C)c1=O [PTX, pentoxifylline, reference compound] | 0.19 | 0.19 | 55.5 mL/min/kg | 1.18 L/kg | 14.7 min | 0.92 L/kg | – | – | –

Further lines, with some results ahead:

fraction unbound at 15 min [1, 3] | fraction unbound at 15 min [1, 4] | clearance [2] | Vd [2] | half-life [2] | Vss, volume of distribution at steady-state [2, 5] | fraction unbound at 15 min [1, 6] | Vz, volume of distribution based on the terminal phase [2, 5] | Structure (SMILES) | percent of plasma protein binding (plasma proteins)
0.31 | 0.31 | 43.1 mL/min/kg | – | 17.1 min | 0.49 L/kg | – | 1.06 L/kg | COc1nc2c(c(=O)n(C)c(=O)n2C)n1CCCC(=O)O [GR-6] | –
0.13 | 0.13 | 43.2 mL/min/kg | 0.95 L/kg | 15.2 min | 0.78 L/kg | – | – | COc1nc2c(c(=O)n(C)c(=O)n2C)n1CCCC(=O)NCc1ccccc1 [GR-7] | –
0.79 | 0.79 | 22.1 mL/min/kg | 0.82 L/kg | 25.7 min | 0.78 L/kg | 0.79 | – | C[C@@H](O)CCCCn1c(=O)c2c(ncn2C)n(C)c1=O [(R)-LSF, R-lisofylline, reference compound] | –
0.89 | 0.89 | 25.3 mL/min/kg | 1.43 L/kg | 39 min | 0.78 L/kg | 0.89 | – | CCOc1nc2c(c(=O)n(C)c(=O)n2C)n1CCCC(=O)NN [GR-5] | –
